# Measurements as given in ChEMBL document CHEMBL1201862, “PubChem BioAssay data set” (2004).
# Calls of active or inactive are those of the source.
# How the values were obtained:
# [1] = biological target: T1, Alkaline phosphatase, tissue-nonspecific isozyme (Homo sapiens, UniProt P05186); experiment: potency against alkaline phosphatase TNAP – biochemical, luminescent, dose response, SAR follow-up (AID 1056)
# T1 sequence (P05186 whole entry): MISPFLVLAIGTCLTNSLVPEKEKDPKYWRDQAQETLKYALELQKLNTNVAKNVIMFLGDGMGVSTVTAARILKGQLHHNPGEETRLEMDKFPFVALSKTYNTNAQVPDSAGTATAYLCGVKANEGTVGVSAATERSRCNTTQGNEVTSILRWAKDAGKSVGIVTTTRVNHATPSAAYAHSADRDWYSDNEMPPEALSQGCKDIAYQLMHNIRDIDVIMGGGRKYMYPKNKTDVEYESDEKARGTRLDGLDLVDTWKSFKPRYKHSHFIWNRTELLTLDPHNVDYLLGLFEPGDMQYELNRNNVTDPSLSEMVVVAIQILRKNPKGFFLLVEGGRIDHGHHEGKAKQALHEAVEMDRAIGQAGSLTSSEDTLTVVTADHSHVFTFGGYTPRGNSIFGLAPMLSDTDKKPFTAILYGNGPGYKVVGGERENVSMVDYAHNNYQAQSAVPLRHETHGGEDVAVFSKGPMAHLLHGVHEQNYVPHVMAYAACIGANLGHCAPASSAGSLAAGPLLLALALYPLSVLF
# Estrogen receptor = biological target: T2, Estrogen receptor (Homo sapiens, UniProt P03372);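 further: potency for inhibiting coactivator peptide recruitment to the receptor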
# T2 sequence (P03372 whole entry): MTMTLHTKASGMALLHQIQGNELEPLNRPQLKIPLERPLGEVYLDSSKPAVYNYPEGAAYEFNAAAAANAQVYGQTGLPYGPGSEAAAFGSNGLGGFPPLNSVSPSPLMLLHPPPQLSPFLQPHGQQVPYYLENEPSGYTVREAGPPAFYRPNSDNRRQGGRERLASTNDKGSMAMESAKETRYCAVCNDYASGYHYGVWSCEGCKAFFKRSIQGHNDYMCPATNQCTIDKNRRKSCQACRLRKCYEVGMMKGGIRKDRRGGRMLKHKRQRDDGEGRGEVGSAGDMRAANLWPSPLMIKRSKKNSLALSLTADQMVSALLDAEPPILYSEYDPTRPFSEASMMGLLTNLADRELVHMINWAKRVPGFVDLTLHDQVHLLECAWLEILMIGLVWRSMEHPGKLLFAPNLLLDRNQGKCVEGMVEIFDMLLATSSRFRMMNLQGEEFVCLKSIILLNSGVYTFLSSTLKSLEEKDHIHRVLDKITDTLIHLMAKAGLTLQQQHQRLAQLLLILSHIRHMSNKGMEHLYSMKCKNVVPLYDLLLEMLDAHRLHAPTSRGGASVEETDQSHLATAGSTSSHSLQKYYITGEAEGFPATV
# [2] = biological target: Glyceraldehyde-3-phosphate dehydrogenase (Homo sapiens, UniProt P04406)
# [3] = biological target: T3, Lytic switch protein BZLF1 (Epstein-Barr virus (strain B95-8) (HHV-4) (Human herpesvirus 4), UniProt P03206); experiment: inhibition of BZLF1 ZTA DNA binding – biochemical, fluorescence polarization, Epstein-Barr virus, 1536-well, counter-screen for EBNA-1 inhibitor project, dose response (AID 2377); design: species or system human gammaherpesvirus 4;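 further: fluorescence polarization of Cy5-labelled ZRE DNA probe bound by purified Zta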
# T3 sequence (P03206 whole entry): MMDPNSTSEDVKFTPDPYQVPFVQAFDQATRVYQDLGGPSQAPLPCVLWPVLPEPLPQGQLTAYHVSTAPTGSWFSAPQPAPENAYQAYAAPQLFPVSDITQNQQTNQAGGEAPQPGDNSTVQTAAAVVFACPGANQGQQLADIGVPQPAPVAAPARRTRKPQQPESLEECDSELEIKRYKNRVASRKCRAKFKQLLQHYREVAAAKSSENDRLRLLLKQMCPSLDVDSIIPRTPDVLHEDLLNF
# [4] = biological target: T4, Epstein-Barr nuclear antigen 1 (Epstein-Barr virus (strain B95-8) (HHV-4) (Human herpesvirus 4), UniProt P03211); experiment: inhibition of EBV nuclear antigen 1 DNA binding – biochemical, fluorescence polarization, 1536-well, dose response (AID 2381); design: species or system human gammaherpesvirus 4;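 further: fluorescence polarization of a Cy5 DNA probe bound by EBNA-1 protein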
# T4 sequence (P03211 whole entry): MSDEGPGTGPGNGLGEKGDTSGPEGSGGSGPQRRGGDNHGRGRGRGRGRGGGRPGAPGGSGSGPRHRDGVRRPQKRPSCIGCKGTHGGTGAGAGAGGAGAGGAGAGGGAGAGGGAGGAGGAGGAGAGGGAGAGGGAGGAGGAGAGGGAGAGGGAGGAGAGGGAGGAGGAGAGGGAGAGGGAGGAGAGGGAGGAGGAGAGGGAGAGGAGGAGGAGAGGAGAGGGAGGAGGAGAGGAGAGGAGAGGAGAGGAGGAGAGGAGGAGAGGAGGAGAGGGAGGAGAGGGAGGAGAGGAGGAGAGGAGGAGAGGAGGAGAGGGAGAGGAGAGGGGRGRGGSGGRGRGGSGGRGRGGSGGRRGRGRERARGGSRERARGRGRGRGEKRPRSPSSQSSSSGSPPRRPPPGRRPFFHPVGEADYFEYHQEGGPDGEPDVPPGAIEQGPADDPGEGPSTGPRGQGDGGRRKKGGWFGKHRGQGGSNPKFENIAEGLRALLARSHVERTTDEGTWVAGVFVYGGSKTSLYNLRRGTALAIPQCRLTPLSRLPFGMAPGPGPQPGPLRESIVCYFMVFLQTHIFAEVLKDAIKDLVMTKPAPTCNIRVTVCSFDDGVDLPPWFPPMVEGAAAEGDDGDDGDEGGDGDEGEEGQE
# [5] = biological target: T5, DNA repair protein RAD52 homolog (Homo sapiens, UniProt P43351); format: functional, biochemical
# T5 sequence (P43351 whole entry): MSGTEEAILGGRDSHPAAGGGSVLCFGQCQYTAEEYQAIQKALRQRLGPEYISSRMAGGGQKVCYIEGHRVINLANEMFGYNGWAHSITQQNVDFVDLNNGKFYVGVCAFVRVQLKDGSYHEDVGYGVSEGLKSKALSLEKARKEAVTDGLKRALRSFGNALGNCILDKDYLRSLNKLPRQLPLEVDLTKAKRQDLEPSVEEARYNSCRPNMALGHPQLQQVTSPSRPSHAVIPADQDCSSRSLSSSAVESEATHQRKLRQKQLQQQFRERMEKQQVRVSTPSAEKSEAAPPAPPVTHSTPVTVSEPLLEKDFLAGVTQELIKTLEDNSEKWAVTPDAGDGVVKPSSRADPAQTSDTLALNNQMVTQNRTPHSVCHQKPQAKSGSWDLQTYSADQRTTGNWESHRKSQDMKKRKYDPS
# [6] = potency of ADAM10 substrate cleavage blockers – biochemical, QFRET, dose response (AID 743254);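 further: ADAM10 enzyme with the DM2 quenched FRET peptide as substrate; EDANS fluorescence gain as the protease cuts the substrate; inhibitor potency against ADAM10 proteolytic activity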
# [7] = biological target: Disintegrin and metalloproteinase domain-containing protein 17 (Homo sapiens, UniProt P78536); experiment: inhibition of ADAM17 substrate cleavage – biochemical, quenched FRET substrate, counter-screen for ADAM10 exosite inhibitor project, dose response (AID 743253)
# [8] = biological target: T6, DNA repair and recombination protein RAD54-like (Homo sapiens, UniProt Q92698); experiment: RAD54 Holliday junction migration blockers – biochemical, fluorescence, cherry-picked samples, dose series, confirmation (AID 651657); format: functional
# T6 sequence (Q92698 whole entry): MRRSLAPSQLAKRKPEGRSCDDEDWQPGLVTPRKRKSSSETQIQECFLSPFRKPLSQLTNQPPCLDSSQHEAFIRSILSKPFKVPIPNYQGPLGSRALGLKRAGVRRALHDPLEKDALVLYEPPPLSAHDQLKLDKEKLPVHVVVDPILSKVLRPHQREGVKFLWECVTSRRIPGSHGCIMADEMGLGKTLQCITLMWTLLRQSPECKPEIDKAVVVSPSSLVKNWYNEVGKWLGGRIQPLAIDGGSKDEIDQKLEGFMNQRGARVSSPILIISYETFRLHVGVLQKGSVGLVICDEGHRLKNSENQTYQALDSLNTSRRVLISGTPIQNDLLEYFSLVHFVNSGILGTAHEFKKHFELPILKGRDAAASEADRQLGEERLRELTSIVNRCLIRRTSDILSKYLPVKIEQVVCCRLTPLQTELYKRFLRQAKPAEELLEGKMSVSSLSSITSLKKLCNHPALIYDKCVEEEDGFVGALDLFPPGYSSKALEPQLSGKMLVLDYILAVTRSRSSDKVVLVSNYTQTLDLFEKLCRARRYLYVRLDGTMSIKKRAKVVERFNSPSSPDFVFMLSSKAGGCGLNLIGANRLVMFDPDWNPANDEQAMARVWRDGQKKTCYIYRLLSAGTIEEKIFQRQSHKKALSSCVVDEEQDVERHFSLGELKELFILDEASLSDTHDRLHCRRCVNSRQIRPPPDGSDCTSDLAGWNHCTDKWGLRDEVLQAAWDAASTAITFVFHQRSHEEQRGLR
# [9] = biological target: T7, Calpain-2 catalytic subunit (Sus scrofa, UniProt P43367); experiment: m-calpain protease blockers, concentration series – biochemical, fluorogenic peptide substrate, dose response (AID 1420); format: functional
# T7 sequence (P43367 whole entry): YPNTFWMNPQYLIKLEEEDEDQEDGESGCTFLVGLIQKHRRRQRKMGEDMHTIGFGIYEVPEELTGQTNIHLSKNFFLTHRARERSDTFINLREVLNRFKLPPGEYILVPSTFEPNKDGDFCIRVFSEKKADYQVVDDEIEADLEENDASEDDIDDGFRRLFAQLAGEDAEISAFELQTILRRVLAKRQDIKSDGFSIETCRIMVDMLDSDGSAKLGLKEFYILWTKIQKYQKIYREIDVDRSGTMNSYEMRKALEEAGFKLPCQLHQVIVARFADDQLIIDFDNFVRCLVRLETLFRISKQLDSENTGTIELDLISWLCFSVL
# [10] = biological target: T8, Small ubiquitin-related modifier 1 (Homo sapiens, UniProt P63165); experiment: SUMO1 protein interaction blockers, potency – biochemical, fluorescence polarization, uHTS hits, dose response (AID 624382); format: functional; conditions: read-out: IC50_Mean
# [11] = biological target: T8, Small ubiquitin-related modifier 1; experiment: SUMO1 protein-protein binding blockers, potency – biochemical, FRET, dose response (AID 624383); format: functional; conditions: read-out: IC50_Mean
# BJ [12] = experiment: cells; format: functional, cell-based; conditions: Homo sapiens
# [13] = biological target: T9, Microphthalmia-associated transcription factor (Homo sapiens, UniProt O75030); experiment: reducers of TRPM1 reporter luminescence, concentration series – cell-based, SK-MEL-5, cherry-picked, set 3, MITF inhibitor project, dose response (AID 493073); format: functional;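 further: SK-MEL-5 melanoma cells with luciferase driven by the MITF target TRPM1 promoter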
# T9 sequence (O75030 whole entry): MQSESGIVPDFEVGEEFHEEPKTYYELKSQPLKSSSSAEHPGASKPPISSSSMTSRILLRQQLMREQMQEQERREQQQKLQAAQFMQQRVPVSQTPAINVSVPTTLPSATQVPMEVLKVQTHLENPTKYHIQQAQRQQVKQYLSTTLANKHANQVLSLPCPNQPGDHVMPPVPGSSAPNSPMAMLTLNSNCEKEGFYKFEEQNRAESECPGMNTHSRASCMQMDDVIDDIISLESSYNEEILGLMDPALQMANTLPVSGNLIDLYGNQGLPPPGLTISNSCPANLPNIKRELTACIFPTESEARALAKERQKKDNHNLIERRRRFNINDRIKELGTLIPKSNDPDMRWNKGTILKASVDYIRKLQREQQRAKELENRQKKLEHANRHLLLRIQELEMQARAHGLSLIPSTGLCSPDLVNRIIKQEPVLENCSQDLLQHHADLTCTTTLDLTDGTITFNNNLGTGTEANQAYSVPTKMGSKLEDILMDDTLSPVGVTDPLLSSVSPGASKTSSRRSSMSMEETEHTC
# [14] = DRD fibroblast viability loss – cell-based, non-viral oncogenic, luminescence, dose response (AID 1934); format: functional; conditions: Homo sapiens
# BJ [15] = experiment: BJ-TERT fibroblast viability loss – cell-based, RAS-independent, luminescence, dose response (AID 1933); format: functional; conditions: Homo sapiens
# BJ [16] = experiment: BJ-TERT-LT-ST fibroblast viability loss – cell-based, RAS-independent, luminescence, dose response (AID 1935); format: functional; conditions: Homo sapiens;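 further: BJ fibroblasts immortalized with TERT plus LT and ST oncogenes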
# [17] = Fluorescence-based cell-based high throughput dose response assay for inhibitors of the interaction of nucleotide-binding oligomerization domain containing 2 (NOD2) and the receptor-interacting serine-threonine kinase 2 (RIPK2).; format: functional; conditions: Homo sapiens
# [18] = P. falciparum Dd2 growth inhibitors, dose response, SYBR Green, cherry-picked samples (AID 1159567); format: functional, cell-based
# [19] = toxicity to human hepatoma HepG2 cells – cell-based, cherry-picked samples, cytotoxicity control, dose response (AID 1159577); format: functional
# [20] = A Cell Based Secondary Assay To Explore Cytotoxicity of Compounds that Sensitize Mycobacterium Tuberculosis to Beta-Lactam Antibiotics.; format: functional
# T8 sequence (P63165 whole entry): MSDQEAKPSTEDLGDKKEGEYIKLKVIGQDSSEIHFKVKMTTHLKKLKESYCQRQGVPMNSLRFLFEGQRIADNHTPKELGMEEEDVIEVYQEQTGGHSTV
# Disintegrin and metalloproteinase domain-containing protein 17, sequence (P78536 whole entry, the tested form may be a part): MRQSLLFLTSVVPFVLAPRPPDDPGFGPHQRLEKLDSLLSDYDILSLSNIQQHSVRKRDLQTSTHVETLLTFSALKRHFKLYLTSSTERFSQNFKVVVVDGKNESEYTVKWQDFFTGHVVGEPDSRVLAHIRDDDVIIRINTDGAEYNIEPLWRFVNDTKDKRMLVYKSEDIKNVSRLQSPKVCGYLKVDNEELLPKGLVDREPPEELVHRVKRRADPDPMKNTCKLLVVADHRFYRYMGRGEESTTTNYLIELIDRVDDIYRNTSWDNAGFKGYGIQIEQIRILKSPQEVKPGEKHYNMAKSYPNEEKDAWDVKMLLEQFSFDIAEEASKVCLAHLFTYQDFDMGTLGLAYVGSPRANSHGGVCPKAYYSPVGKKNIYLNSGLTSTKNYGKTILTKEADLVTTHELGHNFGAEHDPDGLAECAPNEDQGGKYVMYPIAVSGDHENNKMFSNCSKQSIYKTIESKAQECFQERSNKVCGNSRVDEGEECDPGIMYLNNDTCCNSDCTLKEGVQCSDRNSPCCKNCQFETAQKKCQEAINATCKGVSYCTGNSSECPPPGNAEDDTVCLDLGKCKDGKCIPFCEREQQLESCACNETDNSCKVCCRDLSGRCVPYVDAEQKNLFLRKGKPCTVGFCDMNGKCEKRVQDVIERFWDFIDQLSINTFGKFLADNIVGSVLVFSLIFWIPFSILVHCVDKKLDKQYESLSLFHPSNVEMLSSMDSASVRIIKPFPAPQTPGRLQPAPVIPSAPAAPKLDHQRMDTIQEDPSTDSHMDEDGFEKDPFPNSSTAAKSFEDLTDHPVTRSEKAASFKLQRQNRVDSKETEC
# Glyceraldehyde-3-phosphate dehydrogenase, sequence (P04406 whole entry): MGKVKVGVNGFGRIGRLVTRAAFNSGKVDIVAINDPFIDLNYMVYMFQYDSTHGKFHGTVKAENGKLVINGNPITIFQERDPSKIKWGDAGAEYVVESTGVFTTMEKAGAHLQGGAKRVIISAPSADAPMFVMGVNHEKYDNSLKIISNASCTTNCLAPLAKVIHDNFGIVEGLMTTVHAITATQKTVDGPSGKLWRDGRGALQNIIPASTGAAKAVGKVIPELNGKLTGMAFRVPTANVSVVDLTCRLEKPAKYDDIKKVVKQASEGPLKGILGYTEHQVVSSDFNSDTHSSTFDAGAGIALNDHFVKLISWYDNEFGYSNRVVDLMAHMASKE
compound,measurement,setting,value
Nc1nc(N2C(=O)C3CC=CCC3C2=O)nn1-c1ccccc1 (configuration not stated),IC50,[1],> 100 µM (inactive)
same,IC50,Estrogen receptor,> 50 µM (not active)
same,IC50,[2],> 100 µM (not active)
CCOc1cccc(NC(=O)Cn2nc(-c3ccc4c(c3)OCCO4)ccc2=O)c1,IC50,[3],> 111 µM (not active)
same,IC50,[4],13.7 µM (not active)
Cc1[nH]c2ccc(O)cc2c1CCN,AC50,[5],4.06 µM (active)
COc1ccc2c(c1)c(CC(=O)Nc1ccc(C(C)=O)cc1)c(C)n2C(=O)c1ccc(Cl)cc1,IC50,[6],> 69.5 µM (inactive)
same,IC50,[7],> 69.5 µM (inactive)
CC(=O)Nc1ccc(NC(=O)C(C)OC(=O)c2oc3ccccc3c2C)cc1 (configuration not stated),IC50,[3],> 111 µM (not active)
same,IC50,[4],9.16 µM (active)
O=C(Nc1ccc(Nc2ccncc2)cc1)c1ccc(Nc2ccnc3ccc([N+](=O)[O-])cc23)cc1,AC50,[8],100 µM (inactive)
same,IC50,[9],3.36 µM (not active)
same,IC50,[10],> 66.6 µM (inactive)
same,IC50,[11],0.326 µM (active)
COc1ccc(CN([C@H](CO)CC(C)C)S(=O)(=O)N(Cc2ccccc2)[C@H](CO)CC(C)C)cc1,IC50,[6],5.93 µM (active)
same,IC50,[7],> 69.5 µM (inactive)
CNC(=O)COC(=O)c1ccccc1C(=O)c1ccc(Cl)c([N+](=O)[O-])c1,EC50,BJ [12],5.44 µM (inconclusive)
same,AC50,[13],9.77 µM (active)
same,EC50,[14],10 µM (inconclusive)
same,EC50,BJ [15],4.68 µM (active)
same,EC50,BJ [16],2.42 µM (inconclusive)
same,IC50,[17],2.58 µM (active)
COc1ccc2c3c([nH]c2c1)[C@H](CO)N(CC1CC1)CC31CCN(S(=O)(=O)c2cccc(F)c2)CC1,AC50,[18],4 µM (active)
same,AC50,[19],> 39 µM (inactive)
CCN(CC)CCN(C(=O)C1=COCCO1)c1nc2c(OC)ccc(OC)c2s1,AC50,[8],23.5 µM (active)
same,AC50,[5],8.89 µM (active)
COc1ccc(-c2c/c(=N\c3ccc(C)cc3)c3ccccc3o2)cc1,CC50,[20],> 40 µM (active)
